Data from patent US20240374779A1, “ANTIMICROBIAL ARTICLES, METHODS OF MAKING AND USING SAME” (TERASAKI INSTITUTE FOR BIOMEDICAL INNOVATION, priority 2021, published 2024).

Assays:
[1] = rats; cited from earlier work
[2] = tested on: C. difficile spores; conditions: similar concentrations (about 100 ppm) of vaporized hydrogen peroxide; cited from earlier work
[3] = hydrogen peroxide release kinetics from microspheres (dissolved oxygen in PBS with catalase); assay type: physicochemical; conditions: early stages (0-3 days); levels decreased gradually
Protocol: The hydrogen peroxide release kinetics of the CPO/PLGA MPS were determined indirectly by measuring the dissolved oxygen levels in phosphate buffered saline (PBS) after breaking down the hydrogen peroxide with catalase. Dissolved oxygen levels were measured by an oxygen sensor probe (ISO-OXY-2, World Precision Instruments), which was connected to the free radical analyzer (TBR1025, World Precision Instruments). MPS with different CPO loading and MPS with different dimensions were evaluated. […] Catalase was used to catalyze the decomposition of hydrogen peroxide to water and oxygen. […] After fully flushed, the hypoxic chamber with glass vials containing samples was sealed and placed into a cell culture incubator at 37° C.

Compound: NC(N)=O [Urea]
- LD50 [1]: about 15 g/kg

Compound: OO [vaporized hydrogen peroxide, hydrogen peroxide]
- time to eradicate C. difficile spores [2]: ≤ 20 min

Compound: [Ca+2].[O-][O-] [free CPO, calcium peroxide]
- peroxide levels with free CPO in PBS [3]: Elevated peroxide levels
